One may read the IC50 as the concentration at which inhibition is half-maximal.

Our source for the MNT and IC50 values is patent US20230271956A1, “AMIDE DERIVATIVES” (Merck Patent GmbH, priority 2020, published 2023).

Holding throughout (type): cell-based
The subject of one data set is CHO-K1 cells. The experiment in a line: Micronucleus assay (MNT) in vitro. Also on record: key: A: negative, putative negative (micronuclei detected beyond threshold of 60% cyctotoxicity); B: positive. Particulars: 24 hrs treatment, 0.2 µM to 100 µM.
Data set [1] has as its target T1, ACSS2 (Homo sapiens, UniProt Q9NR19).
T1 construct: endogenous fatty acid synthesis activity in the human HCT-15 cancer cell line; endogenous in cells; host or cells: HCT-15
In words: Cellular assay of 14C acetate incorporation into histones (IC50 ACSS2 cellular histone). Particulars: HCT-15 cells. A digest of the protocol:
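Human HCT-15 cells preincubated 1 h with compound (0.25% DMSO final), then pulsed 3 h with 14C-acetate. Histones were acid-extracted (0.2 M HCl, overnight, 4° C) after Triton lysis in sodium-butyrate buffer; incorporated 14C counted by liquid scintillation (CPM) to give IC50.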

The target of data set [2] is T1, ACSS2. In words: Cellular assay of 14C acetate incorporation into fatty acids (IC50 ACSS2 cellular lipids). Particulars: HCT-15 cells. In short, it runs like this: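 Human HCT-15 cells, 24 h on collagen, pre-incubated with compound 2 h at 37 °C in RPMI 1640/10 mM HEPES (≤0.1% DMSO), then 2 h with 14C-acetate plus AlamarBlue as viability check. Lysis at 70 °C, acidified fatty acids captured on scintillant plates; 14C incorporation counted as CPM.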

T1 sequence (Q9NR19 whole entry): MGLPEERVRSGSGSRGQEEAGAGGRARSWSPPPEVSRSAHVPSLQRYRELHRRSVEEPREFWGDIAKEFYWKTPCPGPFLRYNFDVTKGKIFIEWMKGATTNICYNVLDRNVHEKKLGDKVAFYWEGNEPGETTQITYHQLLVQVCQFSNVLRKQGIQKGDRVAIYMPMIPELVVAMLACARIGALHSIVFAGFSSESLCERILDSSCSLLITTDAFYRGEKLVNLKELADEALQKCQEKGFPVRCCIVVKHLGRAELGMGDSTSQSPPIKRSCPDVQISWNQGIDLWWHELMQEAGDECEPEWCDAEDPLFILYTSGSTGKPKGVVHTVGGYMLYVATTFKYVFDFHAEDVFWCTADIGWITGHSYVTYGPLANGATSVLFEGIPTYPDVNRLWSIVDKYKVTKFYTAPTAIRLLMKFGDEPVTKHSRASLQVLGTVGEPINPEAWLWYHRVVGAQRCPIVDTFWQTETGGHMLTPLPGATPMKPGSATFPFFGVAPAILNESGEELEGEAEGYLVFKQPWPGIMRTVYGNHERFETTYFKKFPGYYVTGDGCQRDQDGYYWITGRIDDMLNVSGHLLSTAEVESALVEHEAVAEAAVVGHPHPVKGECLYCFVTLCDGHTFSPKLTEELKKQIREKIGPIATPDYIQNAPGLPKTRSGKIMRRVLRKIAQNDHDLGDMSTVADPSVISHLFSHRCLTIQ

Take `CCc1c(C(O)(c2ccccc2F)c2ccccc2F)nn2cc(C)c(C(=O)Nc3ncn(CC)n3)cc12` [Compound 3, 2-[Bis-(2-fluoro-phenyl)-hydroxy-methyl]-3-ethyl-6-methyl-pyrazolo[1,5-a]pyridine-5-carboxylic acid (1-ethyl-1H-[1,2,4]triazol-3-yl)-amide]: the MNT result with CHO-K1 cells is listed as “A”. The values for the IC50 on ACSS2 [1] and on ACSS2 [2] were 1 to 10 nM and 10 to 100 nM, respectively.

For the molecule `CCc1c(C(O)(c2ccccc2F)c2ccccc2F)nc2cc(Cl)c(C(=O)Nc3ncn(CC)n3)cn12` [Compound 31, 2-[Bis-(2-fluoro-phenyl)-hydroxy-methyl]-7-chloro-3-ethyl-imidazo[1,2-a]pyridine-6-carboxylic acid (1-ethyl-1H-[1,2,4]triazol-3-yl)-amide], the MNT result in the data set with CHO-K1 cells is “A”. Besides, the IC50 against ACSS2 [1] lay in the range of 0.01 to 1 nM; on ACSS2 [2], 1 to 10 nM.

On to `CCn1cc(NC(=O)c2cc3c(nc2F)nc(C(O)(c2ccccc2F)c2ccccc2F)n3CC)cn1` [Compound 90, 2-[bis(2-fluorophenyl)(hydroxy)methyl]-1-ethyl-N-(1-ethyl-1H-pyrazol-4-yl)-5-fluoro-1H-imidazo[4,5-b]pyridine-6-carboxamide], for which, in the data set with CHO-K1 cells, the MNT result was “A”. In addition, the IC50 against ACSS2 [1] and on ACSS2 [2] was 1 to 10 nM throughout.

For `CCc1c(C(O)(c2ccccc2)c2ccccc2)nn2cc(Cl)c(C(=O)Nc3ncn(CC)n3)cc12` [Compound 1, 6-Chloro-3-ethyl-2-(hydroxy-diphenylmethyl)-pyrazolo[1,5-a]pyridine-5-carboxylic acid (1-ethyl-1H-[1,2,4]triazol-3-yl)-amide], the MNT result in the data set with CHO-K1 cells is “A”. Moreover, the IC50 at ACSS2 [1] and against ACSS2 [2] was 0.01 to 1 nM in each case.

In the case of `CCc1c(C(O)(c2ccccc2)c2ccccc2)nn2cc(Cl)c(C(=O)Nc3cnn(CC)c3)cc12` [Compound 6, 6-Chloro-3-ethyl-2-(hydroxy-diphenylmethyl)-pyrazolo[1,5-a]pyridine-5-carboxylic acid (1-ethyl-1H-pyrazol-4-yl)-amide], the MNT entry with CHO-K1 cells is “A”. Besides, the IC50 on ACSS2 [1] and against ACSS2 [2] was 1 to 10 nM in each case.

`CCn1cc(NC(=O)c2cc3c(nc2Cl)nc(C(O)(c2ccccc2)c2ccccc2)n3CC)cn1` [Compound 98, 5-chloro-1-ethyl-N-(1-ethyl-1H-pyrazol-4-yl)-2-(hydroxydiphenylmethyl)-1H-imidazo[4,5-b]pyridine-6-carboxamide]: the MNT result in the data set with CHO-K1 cells is listed as “A”. In addition, the results for the IC50 on ACSS2 [1] and at ACSS2 [2] were 1 to 10 nM and 10 to 100 nM, respectively.

Take `CCc1c(C(O)(c2ccccc2F)c2ccccc2F)nn2cc(Cl)c(C(=O)Nc3ncn(CC)n3)cc12` [Compound 2, 2-[Bis-(2-fluoro-phenyl)-hydroxy-methyl]-6-chloro-3-ethyl-pyrazolo[1,5-a]pyridine-5-carboxylic acid (1-ethyl-1H-[1,2,4]triazol-3-yl)-amide]: the MNT entry in the data set with CHO-K1 cells was “A”. Besides, the IC50 against ACSS2 [1] and at ACSS2 [2] was 0.01 to 1 nM throughout.

For the molecule `CCc1c(C(O)(c2ccccc2)c2ccccc2)nc2ccc(C(=O)Nc3cnn(CC)c3)cn12` [Compound 13, 3-Ethyl-2-(hydroxy-diphenyl-methyl)-imidazo[1,2-a]pyridine-6-carboxylic acid (1-ethyl-1H-pyrazol-4-yl)-amide], the MNT entry in the data set on CHO-K1 cells is recorded as “A”. The IC50 fell in the range of 10 to 100 nM against ACSS2 [1] and 100 to 10000 nM at ACSS2 [2].

With `CCc1c(C(O)(c2ccccc2)c2ccccc2)nc2cc(OC)c(C(=O)Nc3cnn(CC)c3)cn12` [Compound 23, 3-Ethyl-2-(hydroxy-diphenyl-methyl)-7-methoxy-imidazo[1,2-a]pyridine-6-carboxylic acid (1-ethyl-1H-pyrazol-4-yl)-amide], in the data set with CHO-K1 cells, the MNT result was “A”. Besides, the IC50 lay within 1 to 10 nM at ACSS2 [1] and 10 to 100 nM on ACSS2 [2].

For the molecule `CCc1c(C(O)(c2ccccc2F)c2ccccc2F)nc2cc(OC)c(C(=O)Nc3ncn(CC)n3)cn12` [Compound 28, 2-[Bis-(2-fluoro-phenyl)-hydroxy-methyl]-3-ethyl-7-methoxy-imidazo[1,2-a]pyridine-6-carboxylic acid (1-ethyl-1H-[1,2,4]triazol-3-yl)-amide], the MNT result in the data set with CHO-K1 cells is “A”. The IC50 is 0.01 to 1 nM against ACSS2 [1] and 1 to 10 nM on ACSS2 [2].

For `CCc1c(C(O)(c2ccccc2)c2ccccc2)nn2ccc(C(=O)Nc3ncn(CC)n3)cc12` [Compound 9, 3-Ethyl-2-(hydroxy-diphenyl-methyl)-pyrazolo[1,5-a]pyridine-5-carboxylic acid (1-ethyl-1H-[1,2,4]triazol-3-yl)-amide], the MNT entry in the data set on CHO-K1 cells is recorded as “B”. Also, the IC50 at ACSS2 [1] and on ACSS2 [2] was 0.01 to 1 nM in each case.

`CCn1cnc(NC(=O)c2cc3c(nc2OC)nc(C(O)(c2ccccc2F)c2ccc(OC(F)F)cc2F)n3CC)n1` (racemic) [Compound 94, 2-{[4-(difluoromethoxy)-2-fluorophenyl](2-fluorophenyl)hydroxymethyl}-1-ethyl-N-(1-ethyl-1H-1,2,4-triazol-3-yl)-5-methoxy-1H-imidazo[4,5-b]pyridine-6-carboxamide]: the MNT result in the data set on CHO-K1 cells is “A”. Besides, the IC50 against ACSS2 [1] and against ACSS2 [2] was 1 to 10 nM in each case.

As for `CCc1c(C(O)(c2ccccc2)c2ccccc2)nn2ccc(C(=O)Nc3cnn(CC)c3)cc12` [Compound 10, 3-Ethyl-2-(hydroxy-diphenyl-methyl)-pyrazolo[1,5-a]pyridine-5-carboxylic acid (1-ethyl-1H-pyrazol-4-yl)-amide], the MNT result in the data set with CHO-K1 cells is listed as “A”. The IC50 against ACSS2 [1] and at ACSS2 [2] was 10 to 100 nM each time.

In the case of `CCc1c(C(O)(c2ccccc2)c2ccccc2)nc2cc(F)c(C(=O)Nc3ncn(CC)n3)cn12` [Compound 20, 3-Ethyl-7-fluoro-2-(hydroxy-diphenylmethyl)-imidazo[1,2-a]pyridine-6-carboxylic acid (1-ethyl-1H-[1,2,4]triazol-3-yl)-amide], in the data set with CHO-K1 cells, the MNT entry is “A”. The IC50 against ACSS2 [1] was in the range of 0.01 to 1 nM; against ACSS2 [2], 1 to 10 nM.
